A short description of this data set: MTT cell viability assay, compounds at 5, 1 and 0.2 μM, 48 hours. It is filed as cell-based. Conditions: human, A549 tumor cells. In short, it runs like this: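 A549 cells were seeded at 2500/well in DMEM + 10% FBS, grown overnight, then exposed to compound for 48 h. Viability was read by MTT (5 mg/ml, 4 h), with formazan dissolved in DMSO and absorbance measured at 560/570 nm to give survival rate.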

As for `CSc1nc(N)cc(Oc2ccc(-c3nnc(Nc4cccc(C(F)(F)F)c4)[nH]3)cc2C)n1` [Compound 102], the viability at 48 h, 0.2 µM was more than 70%; the viability at 48 h, 1 µM was more than 70%; the viability at 48 h, 5 µM was more than 70%.

In turn, `FC(F)(F)c1cccc(Nc2nnc(-c3ccc(Oc4ccncc4)cc3)[nH]2)c1` [Compound 3] came in with a viability at 48 h, 0.2 µM of more than 70%; a viability at 48 h, 1 µM of 50 to 70%; a viability at 48 h, 5 µM of less than 50%.

For the molecule `CSc1nc(N)cc(Sc2ccc(-c3nnc(Nc4cccc(C(F)(F)F)c4)[nH]3)cc2)n1` [Compound 119], the viability at 48 h, 0.2 µM was more than 70%; the viability at 48 h, 1 µM was less than 50%; the viability at 48 h, 5 µM is less than 50%.

As to `Nc1cc(Oc2ccc(-c3nnc(Nc4cccc(C(F)(F)F)c4)[nH]3)cc2)nc(NCCO)n1` [Compound 61], the viability at 48 h, 0.2 µM is more than 70%; the viability at 48 h, 1 µM was more than 70%; the viability at 48 h, 5 µM is more than 70%.

`Nc1cc(Oc2ccc(-c3nnc(Nc4cccc(C(F)(F)F)c4)[nH]3)cc2)c2ccccc2n1` [Compound 69] registered a viability at 48 h, 0.2 µM of more than 70%; a viability at 48 h, 1 µM of more than 70%; a viability at 48 h, 5 µM of more than 70%.

Take `COc1cc2ncnc(Oc3ccc(-c4nnc(Nc5cccc(C(F)(F)F)c5)[nH]4)cc3)c2cc1OC` [Compound 160]: the viability at 48 h, 0.2 µM is more than 70%; the viability at 48 h, 1 µM is more than 70%; the viability at 48 h, 5 µM was 50 to 70%.

Take `FC(F)(F)c1cccc(Nc2nnc(-c3cccc(Oc4nccc5ccccc45)c3)[nH]2)c1` [Compound 166]: the viability at 48 h, 0.2 µM is more than 70%; the viability at 48 h, 1 µM is more than 70%; the viability at 48 h, 5 µM is more than 70%.

Consider `CSc1nc(N)cc(Oc2c(C)cc(-c3nnc(Nc4cccc(C(F)(F)F)c4)[nH]3)cc2C)n1` [Compound 110], for which the viability at 48 h, 0.2 µM was more than 70%; the viability at 48 h, 1 µM is more than 70%; the viability at 48 h, 5 µM is more than 70%.

As for `Nc1nc(OCC2CC2)cc(Oc2ccc(-c3nnc(Nc4cccc(C(F)(F)F)c4)[nH]3)cc2)n1` [Compound 84], the viability at 48 h, 0.2 µM is more than 70%; the viability at 48 h, 1 µM is more than 70%; the viability at 48 h, 5 µM was more than 70%.

For the molecule `Nc1cc(Oc2ccc(-c3nnc(Nc4cccc(C(F)(F)F)c4)o3)cc2)ccn1` [Compound 59], the viability at 48 h, 0.2 µM is more than 70%; the viability at 48 h, 1 µM is more than 70%; the viability at 48 h, 5 µM was more than 70%.

In the case of `N#Cc1ccc2c(Oc3ccc(-c4nnc(Nc5cccc(C(F)(F)F)c5)[nH]4)cc3)ccnc2c1` [Compound 189], the viability at 48 h, 0.2 µM is more than 70%; the viability at 48 h, 1 µM was more than 70%; the viability at 48 h, 5 µM was more than 70%.

Molecule `Nc1cc(Oc2ccc(-c3nnc(Nc4cccc(C(F)(F)F)c4)o3)cc2)nc(N)n1` [Compound 24] returned a viability at 48 h, 0.2 µM of more than 70%; a viability at 48 h, 1 µM of more than 70%; a viability at 48 h, 5 µM of more than 70%.

As for `Cc1ccc2nccc(Oc3ccc(-c4nnc(Nc5cccc(C(F)(F)F)c5)[nH]4)cc3)c2c1` [Compound 162], the viability at 48 h, 0.2 µM is more than 70%; the viability at 48 h, 1 µM was more than 70%; the viability at 48 h, 5 µM was more than 70%.

Molecule `CSc1nc(Oc2cccc(-c3nnc(Nc4cccc(C(F)(F)F)c4)[nH]3)c2)c2cc[nH]c2n1` [Compound 56] gave a viability at 48 h, 0.2 µM of more than 70%; a viability at 48 h, 1 µM of more than 70%; a viability at 48 h, 5 µM of more than 70%.

Molecule `Nc1cc(Oc2cccc(-c3nnc(Nc4cccc(C(F)(F)F)c4)[nH]3)c2)c2ccccc2n1` [Compound 86] displayed a viability at 48 h, 0.2 µM of more than 70%; a viability at 48 h, 1 µM of more than 70%; a viability at 48 h, 5 µM of more than 70%.

As to `CCc1cc(Oc2cccc(-c3nnc(Nc4cccc(C(F)(F)F)c4)[nH]3)c2)nc(N)n1` [Compound 94], the viability at 48 h, 0.2 µM is more than 70%; the viability at 48 h, 1 µM is more than 70%; the viability at 48 h, 5 µM lay within 50 to 70%.

For the molecule `CSc1nc(N)cc(Oc2cccc(-c3nnc(Nc4cccc(C(F)(F)F)c4)[nH]3)c2)n1` [Compound 14], the viability at 48 h, 0.2 µM lay within 50 to 70%; the viability at 48 h, 1 µM lay in the range of 50 to 70%; the viability at 48 h, 5 µM lay in the range of 50 to 70%.

For the molecule `COCCOc1nc(N)cc(Oc2ccc(-c3nnc(Nc4cccc(C(F)(F)F)c4)[nH]3)cc2)n1` [Compound 78], the viability at 48 h, 0.2 µM is more than 70%; the viability at 48 h, 1 µM was more than 70%; the viability at 48 h, 5 µM is less than 50%.

The molecule `COc1ccc2c(Oc3ccc(-c4nnc(Nc5cccc(C(F)(F)F)c5)[nH]4)cc3)ccnc2c1` [Compound 11] had a viability at 48 h, 0.2 µM of more than 70%; a viability at 48 h, 1 µM of more than 70%; a viability at 48 h, 5 µM of 50 to 70%.

On to `COc1ccc2c(Oc3ccc(-c4nnc(Nc5cccc(C(F)(F)F)c5)o4)cc3)ccnc2c1` [Compound 33], for which the viability at 48 h, 0.2 µM is more than 70%; the viability at 48 h, 1 µM is more than 70%; the viability at 48 h, 5 µM was more than 70%.

With `FC(F)(F)c1cccc(Nc2nnc(-c3ccc(Oc4ncnc5[nH]ccc45)cc3)s2)c1` [Compound 45], the viability at 48 h, 0.2 µM is more than 70%; the viability at 48 h, 1 µM was 50 to 70%; the viability at 48 h, 5 µM was less than 50%.

On to `COC(=O)c1cccc(Nc2nnc(-c3ccc(Oc4cc(N)nc(SC)n4)cc3)[nH]2)c1` [Compound 138], for which the viability at 48 h, 0.2 µM is more than 70%; the viability at 48 h, 1 µM is more than 70%; the viability at 48 h, 5 µM was less than 50%.

In turn, `COCCOc1nc(N)cc(Oc2cccc(-c3nnc(Nc4cccc(C(F)(F)F)c4)[nH]3)c2)n1` [Compound 96] returned a viability at 48 h, 0.2 µM of more than 70%; a viability at 48 h, 1 µM of more than 70%; a viability at 48 h, 5 µM of more than 70%.

`CSc1nc(Oc2ccc(-c3nnc(Nc4cccc(C(F)(F)F)c4)[nH]3)cc2)c2cc[nH]c2n1` [Compound 9]: the viability at 48 h, 0.2 µM was more than 70%; the viability at 48 h, 1 µM is more than 70%; the viability at 48 h, 5 µM is more than 70%.

For `Nc1cc(Oc2cccc(-c3nnc(Nc4cccc(C(F)(F)F)c4)[nH]3)c2)nc(N)n1` [Compound 13], the viability at 48 h, 0.2 µM is more than 70%; the viability at 48 h, 1 µM was more than 70%; the viability at 48 h, 5 µM lay within 50 to 70%.

`Nc1cc(Oc2ccc(-c3nnc(Nc4cccc(C(F)(F)F)c4)[nH]3)cc2)ccn1` [Compound 4] came in with a viability at 48 h, 0.2 µM of more than 70%; a viability at 48 h, 1 µM of more than 70%; a viability at 48 h, 5 µM of 50 to 70%.

The molecule `CCOc1nc(N)cc(Oc2ccc(-c3nnc(Nc4cccc(C(F)(F)F)c4)[nH]3)cc2)n1` [Compound 79] had a viability at 48 h, 0.2 µM of more than 70%; a viability at 48 h, 1 µM of less than 50%; a viability at 48 h, 5 µM of less than 50%.

For the molecule `Nc1cc(Oc2ccc(-c3nnc(Nc4cccc(C(F)(F)F)c4)o3)cc2)ncn1` [Compound 28], the viability at 48 h, 0.2 µM was more than 70%; the viability at 48 h, 1 µM was more than 70%; the viability at 48 h, 5 µM is more than 70%.

Consider `CSc1nc(N)cc(Oc2ccc(-c3nnc(Nc4cccc(C)c4)[nH]3)cc2)n1` [Compound 65], for which the viability at 48 h, 0.2 µM is more than 70%; the viability at 48 h, 1 µM is more than 70%; the viability at 48 h, 5 µM lay within 50 to 70%.

In turn, `CSc1nc(N)cc(Oc2ccc(-c3nnc(Nc4cccc(OC(C)C)c4)[nH]3)cc2)n1` [Compound 134] showed a viability at 48 h, 0.2 µM of more than 70%; a viability at 48 h, 1 µM of more than 70%; a viability at 48 h, 5 µM of less than 50%.

The record behind these values is patent US9212151B2, “Heterocyclic compounds useful for kinase inhibition” (Amitech Therapeutic Solutions, Inc., priority 2010, dated 2015).
